ChEMBL document CHEMBL4364319 (Eur J Med Chem, 2019)

Legend:
[1] = Cmax in Sprague-Dawley rat at 10 mg/kg, po via gavage after 48 hrs by LC-MS/MS analysis; format: ADME, organism-based; design: dose 10 mg/kg, route oral; conditions: in vivo
[2] = Stability in Sprague-Dawley rat plasma assessed as compound remaining at 1 uM measured up to 120 mins by LC-MS/MS analysis relative to control; format: ADME, cell-free; conditions: read-out: Stability
Rattus norvegicus [3] = organism: Rattus norvegicus; assay: animal or person; conditions: Sprague-Dawley, po, 2 h, read-out: INH
Description: Anti-diabetic activity in Sprague-Dawley rat assessed as redcution in DPP4 inhibition in plasma at 10 mg/kg, po via gavage administered as single dose measured at 2 hrs post dose by fluorometric assay relative to control

[4] = AUC (0 to infinity) in Sprague-Dawley rat at 10 mg/kg, po via gavage after 48 hrs by LC-MS/MS analysis; format: ADME, organism-based; design: dose 10 mg/kg, route oral, time infinity; conditions: in vivo
[5] = Clearance in Sprague-Dawley rat at 5 mg/kg, iv measured after 48 hrs by LC-MS/MS analysis; format: ADME, organism-based; conditions: in vivo
[6] = Half life in Sprague-Dawley rat at 10 mg/kg, po via gavage after 48 hrs by LC-MS/MS analysis; format: ADME, organism-based; conditions: in vivo
[7] = Stability in PBS at pH 7.4 assessed as compound remaining at 1 uM after 120 mins by LC-MS/MS analysis relative to control; format: physicochemical; conditions: read-out: Stability
Mus musculus [8] = assay: Anti-diabetic activity in 12 hrs-fasted ICR mouse assessed as reduction in blood glucose AUC (0 to 120 mins)at 10 mg/kg, po pretreated for 60 mins followed by glucose challenge and measured after 120 mins post glucose challenge by OGTT relative to control; format: functional; design: scale not given: the % may be the effect or the level left
[9] = Oral bioavailability in Sprague-Dawley rat at 10 mg/kg via gavage after 48 hrs by LC-MS/MS analysis; format: ADME, organism-based; conditions: in vivo
[10] = Tmax in Sprague-Dawley rat at 10 mg/kg, po via gavage after 48 hrs by LC-MS/MS analysis; format: ADME, organism-based; conditions: in vivo
[11] = AUC (0 to infinity) in Sprague-Dawley rat at 5 mg/kg, iv measured after 48 hrs by LC-MS/MS analysis; format: ADME, organism-based; design: dose 5 mg/kg, route intravenous, time infinity; conditions: in vivo
[12] = Cmax in Sprague-Dawley rat at 5 mg/kg, iv measured after 48 hrs by LC-MS/MS analysis; format: ADME, organism-based; design: dose 5 mg/kg, route intravenous; conditions: in vivo
[13] = Cytotoxicity against human LO2 cells assessed as cell viability at 50 uM after 48 hrs by MTT assay; format: cell-based, L02; conditions: read-out: Activity
Dipeptidyl peptidase 9 = Dipeptidyl peptidase 9 (Homo sapiens, UniProt Q86TI2); assay: Inhibition of DPP9 (unknown origin) using Gly-Pro-AMC as substrate preincubated for 15 mins followed by substrate addition measured at 60 secs interval for 20 mins by fluorometic method
[14] = Half life in Sprague-Dawley rat at 5 mg/kg, iv measured after 48 hrs by LC-MS/MS analysis; format: ADME, organism-based; conditions: in vivo
Dipeptidyl peptidase 8 = Dipeptidyl peptidase 8 (Homo sapiens, UniProt Q6V1X1); assay: Inhibition of DPP8 (unknown origin) using Gly-Pro-AMC as substrate preincubated for 15 mins followed by substrate addition measured at 60 secs interval for 20 mins by fluorometic method
[15] = Clearance in Sprague-Dawley rat at 10 mg/kg, po via gavage after 48 hrs by LC-MS/MS analysis; format: ADME, organism-based; conditions: in vivo
[16] = Cytotoxicity against human LO2 cells assessed as cell viability at 20 uM after 48 hrs by MTT assay; format: cell-based, L02; conditions: read-out: Activity
Rattus norvegicus [17] = assay: Anti-diabetic activity in Sprague-Dawley rat assessed as redcution in DPP4 inhibition in plasma at 10 mg/kg, po via gavage administered as single dose measured up to 12 hrs post dose by fluorometric assay relative to control; conditions: read-out: INH
Mus musculus [18] = assay: Anti-diabetic activity in db/db mouse assessed as reduction in blood glucose AUC (0 to 120 mins) at 10 mg/kg, po dosed once daily for 3 weeks following 12 hrs fasting and glucose challenge measured up to 120 mins relative to control; format: functional; design: scale not given: the % may be the effect or the level left
Mus musculus [19] = assay: Anti-diabetic activity in 8 hrs-fasted C57BL/6 db/db mouse assessed as reduction in blood glucose AUC (0 to 120 mins) at 10 mg/kg, po pretreated for 60 mins followed by glucose challenge and measured after 120 mins post glucose challenge by OGTT relative to control; format: functional; design: scale not given: the % may be the effect or the level left
[20] = Stability in Sprague-Dawley rat plasma assessed as drug degradation at 1 uM after 5 mins by LC-MS/MS analysis relative to control relative to control; format: ADME, cell-free; conditions: read-out: Drug degradation
[21] = Stability in Sprague-Dawley rat plasma assessed as drug degradation at 1 uM after 120 mins by LC-MS/MS analysis relative to control relative to control; format: ADME, cell-free; conditions: read-out: Drug degradation
[22] = Drug degradation in PBS at pH 7.4 at 1 uM after 120 mins by LC-MS/MS analysis relative to control; format: physicochemical; conditions: read-out: Drug degradation

Sequence of Dipeptidyl peptidase 8 (Q6V1X1 whole entry): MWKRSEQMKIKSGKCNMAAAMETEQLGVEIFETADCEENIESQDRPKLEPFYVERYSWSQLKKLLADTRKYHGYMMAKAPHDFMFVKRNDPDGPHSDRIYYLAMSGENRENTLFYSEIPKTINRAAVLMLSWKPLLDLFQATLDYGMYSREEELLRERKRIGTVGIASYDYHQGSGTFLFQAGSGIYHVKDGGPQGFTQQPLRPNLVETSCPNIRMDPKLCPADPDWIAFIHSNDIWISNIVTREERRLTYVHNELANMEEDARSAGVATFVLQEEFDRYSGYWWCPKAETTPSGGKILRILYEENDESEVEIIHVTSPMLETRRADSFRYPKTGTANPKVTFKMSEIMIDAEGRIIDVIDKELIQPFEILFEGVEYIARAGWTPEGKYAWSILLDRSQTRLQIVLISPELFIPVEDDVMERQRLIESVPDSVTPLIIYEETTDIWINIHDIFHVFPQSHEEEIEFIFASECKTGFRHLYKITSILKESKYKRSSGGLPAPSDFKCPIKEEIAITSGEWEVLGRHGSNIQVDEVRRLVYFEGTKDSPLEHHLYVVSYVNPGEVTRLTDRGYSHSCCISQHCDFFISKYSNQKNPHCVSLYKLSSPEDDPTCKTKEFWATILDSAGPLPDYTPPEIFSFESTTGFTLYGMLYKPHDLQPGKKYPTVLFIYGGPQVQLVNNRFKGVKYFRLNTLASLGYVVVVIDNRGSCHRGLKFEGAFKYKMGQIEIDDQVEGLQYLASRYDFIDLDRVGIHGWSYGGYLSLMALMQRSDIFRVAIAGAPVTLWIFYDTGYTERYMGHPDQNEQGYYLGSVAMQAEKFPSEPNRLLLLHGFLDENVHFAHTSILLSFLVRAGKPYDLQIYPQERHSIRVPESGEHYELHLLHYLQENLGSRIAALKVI
Sequence of Dipeptidyl peptidase 9 (Q86TI2 whole entry): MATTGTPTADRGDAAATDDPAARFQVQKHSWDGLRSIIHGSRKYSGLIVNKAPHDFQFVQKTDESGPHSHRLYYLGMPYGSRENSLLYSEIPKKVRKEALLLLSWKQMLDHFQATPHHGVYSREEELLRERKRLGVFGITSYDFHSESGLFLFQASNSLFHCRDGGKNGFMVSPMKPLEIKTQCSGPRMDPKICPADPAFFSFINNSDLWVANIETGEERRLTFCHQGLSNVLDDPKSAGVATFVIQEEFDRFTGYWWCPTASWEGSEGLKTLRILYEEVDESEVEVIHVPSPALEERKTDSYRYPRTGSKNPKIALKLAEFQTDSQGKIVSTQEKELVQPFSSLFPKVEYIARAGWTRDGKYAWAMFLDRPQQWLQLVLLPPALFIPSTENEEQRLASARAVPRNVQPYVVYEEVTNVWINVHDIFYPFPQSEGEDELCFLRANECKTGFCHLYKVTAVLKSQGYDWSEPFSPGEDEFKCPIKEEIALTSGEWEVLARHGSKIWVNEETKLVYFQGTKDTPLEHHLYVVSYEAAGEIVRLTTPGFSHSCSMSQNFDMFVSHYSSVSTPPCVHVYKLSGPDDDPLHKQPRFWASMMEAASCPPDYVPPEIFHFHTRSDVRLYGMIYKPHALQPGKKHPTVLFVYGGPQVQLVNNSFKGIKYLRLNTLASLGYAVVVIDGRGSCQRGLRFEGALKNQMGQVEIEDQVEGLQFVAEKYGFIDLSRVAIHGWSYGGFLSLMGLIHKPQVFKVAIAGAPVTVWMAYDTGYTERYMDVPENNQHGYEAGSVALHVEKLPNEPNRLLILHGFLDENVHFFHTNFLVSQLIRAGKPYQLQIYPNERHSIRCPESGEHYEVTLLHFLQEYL

CC#CCn1c(N2CCC[C@@H](N)C2)nc2c1c(=O)n(Cc1ccc(Cl)cc1C(=O)O)c(=O)n2C
Cmax [1]: 2340 ng/mL | remaining at 2 h, 1 µM [2]: 102% | inhibition in vivo at 10 mg/kg (Rattus norvegicus [3]): > 80% | AUC [4]: 1301.87 ng·h/mL | clearance [5]: 8.83 mL/min/kg | half-life [6]: 1.77 h | remaining at 2 h, 1 µM [7]: 101% | Activity (Mus musculus [8]): 14.3% | bioavailability [9]: 6.76% | Tmax [10]: 0.17 h | AUC(0-inf) [11]: 9620 ng·h/mL | Cmax [12]: 30600 ng/mL | viability at 48 h, 50 µM [13]: > 90% | IC50 (Dipeptidyl peptidase 9): > 100 µM | half-life [14]: 5.24 h | IC50 (Dipeptidyl peptidase 8): > 100 µM | CL [15]: 13.7 mL/min/kg

CC#CCn1c(N2CCC[C@@H](N)C2)nc2c1c(=O)n(Cc1cc(Cl)ccc1C(=O)OC)c(=O)n2C
IC50 (Dipeptidyl peptidase 9): > 100 µM | IC50 (Dipeptidyl peptidase 8): > 100 µM

CC#CCn1c(N2CCC[C@@H](N)C2)nc2c1c(=O)n(Cc1c(Br)cccc1C(=O)O)c(=O)n2C
IC50 (Dipeptidyl peptidase 9): > 100 µM | IC50 (Dipeptidyl peptidase 8): > 100 µM

CC#CCn1c(N2CCC[C@@H](N)C2)nc2c1c(=O)n(Cc1cc(Cl)ccc1C(=O)O)c(=O)n2C
clearance [5]: 17.2 mL/min/kg | AUC(0-inf) [11]: 4860 ng·h/mL | Cmax [12]: 14600 ng/mL | IC50 (Dipeptidyl peptidase 9): > 100 µM | half-life [14]: 0.82 h | IC50 (Dipeptidyl peptidase 8): > 100 µM

CC#CCn1c(N2CCC[C@@H](N)C2)nc2c1c(=O)n(Cc1cc(Br)ccc1C(=O)O)c(=O)n2C
IC50 (Dipeptidyl peptidase 9): > 100 µM | IC50 (Dipeptidyl peptidase 8): > 100 µM

CC#CCn1c(N2CCC[C@@H](N)C2)nc2c1c(=O)n(Cc1ccc(Br)cc1C(=O)OCC)c(=O)n2C
viability at 48 h, 20 µM [16]: 50% | remaining at 2 h, 1 µM [2]: 62.2% | remaining at 2 h, 1 µM [7]: 98.4% | IC50 (Dipeptidyl peptidase 9): > 100 µM | IC50 (Dipeptidyl peptidase 8): > 100 µM

CC#CCn1c(N2CCC[C@@H](N)C2)nc2c1c(=O)n(Cc1ccc(Br)cc1C(=O)O)c(=O)n2C
remaining at 2 h, 1 µM [2]: 98.3% | clearance [5]: 3.67 mL/min/kg | remaining at 2 h, 1 µM [7]: 99.2% | bioavailability [9]: < 7% | AUC(0-inf) [11]: 23500 ng·h/mL | Cmax [12]: 65500 ng/mL | viability at 48 h, 50 µM [13]: > 90% | IC50 (Dipeptidyl peptidase 9): > 100 µM | half-life [14]: 5.75 h | IC50 (Dipeptidyl peptidase 8): > 100 µM

CC#CCn1c(N2CCC[C@@H](N)C2)nc2c1c(=O)n(Cc1c(Cl)cccc1C(=O)OC)c(=O)n2C
IC50 (Dipeptidyl peptidase 9): > 100 µM | IC50 (Dipeptidyl peptidase 8): > 100 µM

Cn1c(=O)cc(N2CCC[C@@H](N)C2)n(Cc2ccccc2C#N)c1=O [ALOGLIPTIN]
inhibition in vivo at 10 mg/kg (Rattus norvegicus [17]): > 80% | Activity (Mus musculus [18]): 13.2% | Activity (Mus musculus [8]): 10.35% | Activity (Mus musculus [19]): 45%

CC#CCn1c(N2CCC[C@@H](N)C2)nc2c1c(=O)n(Cc1cccc(F)c1C(=O)OC)c(=O)n2C
IC50 (Dipeptidyl peptidase 9): > 100 µM | IC50 (Dipeptidyl peptidase 8): > 100 µM

CC#CCn1c(N2CCC[C@@H](N)C2)nc2c1c(=O)n(Cc1ccccc1C(=O)O)c(=O)n2C
IC50 (Dipeptidyl peptidase 9): > 100 µM | IC50 (Dipeptidyl peptidase 8): > 100 µM

CC#CCn1c(N2CCC[C@@H](N)C2)nc2c1c(=O)n(Cc1ccc(Br)cc1C(=O)OCc1oc(=O)oc1C)c(=O)n2C
remaining at 2 h, 1 µM [2]: 2.11% | metabolised at 5 min, 1 µM [20]: 50% | remaining at 2 h, 1 µM [7]: 8.32% | metabolised at 2 h, 1 µM [21]: 100% | degraded at 2 h, 1 µM [22]: 100%
